Values quoted from earlier work in patent US20070219271A1, “Pharmaceutical Compositions Containing Pufa And At Least One Of An Immunosuppressive Agent Or An Antineoplastic Agent” (Tillotts Pharma AG, priority 2004, published 2007).

System: human squamous carcinoma line and multidrug-resistant and carboplatin-resistant variants
Details: cells pre-treated with GLA

CCCCC/C=C\C/C=C\C/C=C\CCCCC(=O)O [GLA, gamma-linoleic acid]
enhancement of vincristine toxicity: up to 40% | enhancement of toxicity of carboplatin (depending on the concentration of GLA, human squamous carcinoma and carboplatin-resistant variant cell lines): > 50%
